The values that follow come from US20260078120A1, “SUBSTITUTED PYRIDOPYRIMIDINONES” (MIRATI THERAPEUTICS, INC., priority 2022, published 2026).

A word on the pIC50: it is the IC50 on a negative log10 scale, so that one unit is a factor of ten.

pIC50: −log10 of the molar value.

Assay [1] relates to SKBR3 (PI3Kα wild type) cells. Put plainly: CellTiter-Glo 2.0 luminescent cell viability assay, 72 hours, SKBR3 cells. It counts as cell-based. The conditions noted are these: Homo sapiens, SK-BR-3, 72 h, SKBR3 (PI3Kα wild type) cells, CellTiter-Glo, approximately 72 hours; read-out: SKBR3 (WT) Viability IC50. A digest of the protocol: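 Viability measured via CTG luminescence following roughly 72 hours of compound exposure at 37° C. Dosing used a 10 um starting concentration diluted 1:4 over 10 points; percent-of-vehicle data fitted with a variable-slope four-parameter model for IC50.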

The subject of assay [2] is T47D (PI3Kα H1047R mutant) cells. Put plainly: CellTiter-Glo 2.0 luminescent cell viability assay, 72 hours, T47D cells. It counts as cell-based. Particulars: Homo sapiens, T47D, 72 h, T47D (PI3Kα H1047R mutant) cells, CellTiter-Glo, approximately 72 hours; read-out: T47D (H1047R mutant) Viability IC50. A digest of the protocol:
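Cells seeded at 1000 per well overnight were dosed with a 10-concentration, 1:4 series starting at 10 µM and incubated ~72 h at 37° C. Viability was read by CellTiter-Glo 2.0 luminescence after 30 min at room temperature. IC50 came from four-parameter fits of percent vehicle control.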

For the compound `Cc1cc([C@@H](C)Nc2ccncc2C(=O)O)c2nc(N3CCC(F)(F)CC3)c(C#N)c(=O)n2c1` [Example 11-142, (R)-4-((1-(3-cyano-2-(4,4-difluoropiperidin-1-yl)-7-methyl-4-oxo-4H-pyrido[1,2-a]pyrimidin-9-yl)ethyl)amino)nicotinic acid], the pIC50 in assay [1] and in assay [2] was under 5.00 in each case.
Regarding `Cc1cc([C@@H](C)Nc2ccccc2C(=O)O)c2nc(N3CCN(c4ccc(C(F)(F)F)cn4)CC3)c(C)c(=O)n2c1` [Example 11-434, (R)-2-((1-(3,7-dimethyl-4-oxo-2-(4-(5-(trifluoromethyl)pyridin-2-yl)piperazin-1-yl)-4H-pyrido[1,2-a]pyrimidin-9-yl)ethyl)amino)benzoic acid], the negative logarithm of the IC50 (pIC50) in assay [1] is 5.08; in assay [2], 6.86.
Taken in the same sequence, the figures for `Cc1cc(C(C)NC(C)(C)CC(=O)O)c2nc(N3CCCCC3)cc(=O)n2c1` (centres unmarked) [Example 11-387, 3-methyl-3-((1-(7-methyl-4-oxo-2-(piperidin-1-yl)-4H-pyrido[1,2-a]pyrimidin-9-yl)ethyl)amino)butanoic acid] were under 5.00 and under 5.00.
In the same order, the values of `Cc1cc([C@@H](C)Nc2ccc(Cl)nc2C(=O)O)c2nc(N3CCC(F)(F)CC3)c(C)c(=O)n2c1` [Example 11-298, (R)-6-chloro-3-((1-(2-(4,4-difluoropiperidin-1-yl)-3,7-dimethyl-4-oxo-4H-pyrido[1,2-a]pyrimidin-9-yl)ethyl)amino)picolinic acid] are under 5.00 and 6.86.
As to `Cc1cc(C(=O)N2CCCCC2C(=O)O)c2nc(N3CCCCC3)cc(=O)n2c1` (centres unmarked) [Example 11-346, 1-(7-methyl-4-oxo-2-(piperidin-1-yl)-4H-pyrido[1,2-a]pyrimidine-9-carbonyl)piperidine-2-carboxylic acid], the pIC50 in assay [1] and in assay [2] was under 5.00 in each case.
Consider `Cc1cc([C@@H](C)Nc2ccccc2C(=O)O)c2nc(N3CCC4(CC3)COC4)c(C#N)c(=O)n2c1` [Example 11-208, (R)-2-((1-(3-cyano-7-methyl-4-oxo-2-(2-oxa-7-azaspiro[3.5]nonan-7-yl)-4H-pyrido[1,2-a]pyrimidin-9-yl)ethyl)amino)benzoic acid], for which the pIC50 was under 5.00 in assay [1] and 6.33 in assay [2].
On to `Cc1cc([C@@H](C)Nc2ccccc2C(=O)O)c2nc(N3CCN(S(C)(=O)=O)CC3)c(C#N)c(=O)n2c1` [Example 11-283, (R)-2-((1-(3-cyano-7-methyl-2-(4-(methylsulfonyl)piperazin-1-yl)-4-oxo-4H-pyrido[1,2-a]pyrimidin-9-yl)ethyl)amino)benzoic acid], for which the negative-log IC50 (pIC50) in assay [1] is under 5.00; in assay [2] it was 5.14.
For the compound `Cc1cc([C@@H](C)Nc2cc(Cl)nnc2C(=O)O)c2nc(N3Cc4ccccc4C3)c(C)c(=O)n2c1` [Example 11-276, (R)-6-chloro-4-((1-(2-(isoindolin-2-yl)-3,7-dimethyl-4-oxo-4H-pyrido[1,2-a]pyrimidin-9-yl)ethyl)amino)pyridazine-3-carboxylic acid], the negative-log IC50 (pIC50) in assay [1] and in assay [2] was under 5.00 each time.
With `Cc1cc([C@@H](C)Nc2ccc(F)cc2C(=O)O)c2nc(N3CCC(F)(F)CC3)c(C#N)c(=O)n2c1` [Example 11-90, (R)-2-((1-(3-cyano-2-(4,4-difluoropiperidin-1-yl)-7-methyl-4-oxo-4H-pyrido[1,2-a]pyrimidin-9-yl)ethyl)amino)-5-fluorobenzoic acid], the pIC50 in assay [1] is under 5.00; in assay [2] it was 6.51.
In the case of `Cc1cc([C@@H](C)Nc2ccccc2C(=O)O)c2nc(N[C@@H](C)C3CC3)c(C)c(=O)n2c1` [Example 11-166, 2-(((R)-1-(2-(((S)-1-cyclopropylethyl)amino)-3,7-dimethyl-4-oxo-4H-pyrido[1,2-a]pyrimidin-9-yl)ethyl)amino)benzoic acid], the negative-log IC50 (pIC50) was under 5.00 in assay [1] and 6.44 in assay [2].
With `Cc1cc(C(=O)N2CCCC2C(=O)O)c2nc(N3CCCCC3)cc(=O)n2c1` (centres unmarked) [Example 11-345, (7-methyl-4-oxo-2-(piperidin-1-yl)-4H-pyrido[1,2-a]pyrimidin-9-carbonyl)proline], the pIC50 in assay [1] and in assay [2] was under 5.00 each time.
Consider `Cc1cc([C@@H](C)Nc2ccccc2C(=O)O)c2nc(N3C4CNCC3C4)c(C)c(=O)n2c1` [Example 11-180, 2-(((1R)-1-(2-(3,6-diazabicyclo[3.1.1]heptan-6-yl)-3,7-dimethyl-4-oxo-4H-pyrido[1,2-a]pyrimidin-9-yl)ethyl)amino)benzoic acid], for which the pIC50 in assay [1] and in assay [2] was under 5.00 in each case.
`Cc1cc([C@@H](C)Nc2ccccc2C(=O)O)c2nc(C3=CCN(C)CC3)c(C)c(=O)n2c1` [Example 11-148, (R)-2-((1-(3,7-dimethyl-2-(1-methyl-1,2,3,6-tetrahydropyridin-4-yl)-4-oxo-4H-pyrido[1,2-a]pyrimidin-9-yl)ethyl)amino)benzoic acid]: the negative-log IC50 (pIC50) in assay [1] is under 5.00; in assay [2], 5.92.
As for `Cc1cc([C@@H](C)Nc2ccccc2C(=O)O)c2nc(N3C[C@@H]4[C@H](C3)[C@H]4C(F)(F)F)c(C)c(=O)n2c1` [Example 11-445, 2-(((R)-1-(3,7-dimethyl-4-oxo-2-((1R,5S,6R)-6-(trifluoromethyl)-3-azabicyclo[3.1.0]hexan-3-yl)-4H-pyrido[1,2-a]pyrimidin-9-yl)ethyl)amino)benzoic acid], the results for the negative logarithm of the IC50 (pIC50) in assay [1] and in assay [2] were under 5.00 and 6.54, respectively.
Take `Cc1cc([C@@H](C)Nc2ccccc2C(=O)O)c2nc(NC3CCC3)c(C)c(=O)n2c1` [Example 11-99, (R)-2-((1-(2-(cyclobutylamino)-3,7-dimethyl-4-oxo-4H-pyrido[1,2-a]pyrimidin-9-yl)ethyl)amino)benzoic acid]: the negative logarithm of the IC50 (pIC50) was under 5.00 in assay [1] and 6.19 in assay [2].
As for `Cc1cc([C@@H](C)Nc2ccccc2C(=O)O)c2nc(NCC(C)C)c(C#N)c(=O)n2c1` [Example 11-308, (R)-2-((1-(3-cyano-2-(isobutylamino)-7-methyl-4-oxo-4H-pyrido[1,2-a]pyrimidin-9-yl)ethyl)amino)benzoic acid], the negative-log IC50 (pIC50) in assay [1] is under 5.00; in assay [2] it was 6.92.
Turning to `Cc1cc(C(C)Nc2ccccc2C(=O)O)c2nc(N3Cc4ccccc4C3=O)c(C)c(=O)n2c1` (centres unmarked) [Example 11-362, 2-((1-(3,7-dimethyl-4-oxo-2-(1-oxoisoindolin-2-yl)-4H-pyrido[1,2-a]pyrimidin-9-yl)ethyl)amino)benzoic acid], the results for the pIC50 in assay [1] and in assay [2] were under 5.00 and 5.86, respectively.
Regarding `Cc1cc([C@@H](C)Nc2ccccc2C(=O)O)c2nc(O[C@H]3CCOC3)c(C)c(=O)n2c1` [Example 11-246, 2-(((R)-1-(3,7-dimethyl-4-oxo-2-(((S)-tetrahydrofuran-3-yl)oxy)-4H-pyrido[1,2-a]pyrimidin-9-yl)ethyl)amino)benzoic acid], the negative logarithm of the IC50 (pIC50) in assay [1] was under 5.00; in assay [2], 6.71.
With `Cc1cc([C@@H](C)Nc2ccccc2C(=O)O)c2nc(N3CC4CC(C3)C4(C)O)c(C)c(=O)n2c1` (stereo partly drawn) [Example 11-34, 2-(((1R)-1-(2-(6-hydroxy-6-methyl-3-azabicyclo[3.1.1]heptan-3-yl)-3,7-dimethyl-4-oxo-4H-pyrido[1,2-a]pyrimidin-9-yl)ethyl)amino)benzoic acid], the pIC50 in assay [1] was under 5.00; in assay [2], 6.67.
As to `Cc1cc([C@@H](C)Nc2ccccc2C(=O)O)c2nc(-c3cccc(C(C)(C)C#N)c3)cc(=O)n2c1` [Example 11-239, (R)-2-((1-(2-(3-(2-cyanopropan-2-yl)phenyl)-7-methyl-4-oxo-4H-pyrido[1,2-a]pyrimidin-9-yl)ethyl)amino)benzoic acid], the pIC50 is under 5.00 in assay [1] and 5.53 in assay [2].
As to `Cc1cc([C@@H](C)Nc2ccccc2C(=O)O)c2nc(N3CCC(F)(F)CC3)c(C)c(=O)n2c1` [Example 11-303, (R)-2-((1-(2-(4,4-difluoropiperidin-1-yl)-3,7-dimethyl-4-oxo-4H-pyrido [1,2-a]pyrimidin-9-yl)ethyl)amino)benzoic acid], the values for the pIC50 in assay [1] and in assay [2] were under 5.00 and 6.94, respectively.
Consider `CC(Nc1ccccc1C(=O)O)c1cc(C(F)(F)F)cn2c(=O)cc(N3CCCCC3)nc12` (centres unmarked) [Example 11-416, 2-((1-(4-oxo-2-(piperidin-1-yl)-7-(trifluoromethyl)-4H-pyrido[1,2-a]pyrimidin-9-yl)ethyl)amino)benzoic acid], for which the pIC50 in assay [1] is under 5.00; in assay [2], 5.04.
For `Cc1cc(C(C)Nc2cnc(Cl)cc2C(=O)O)c2nc(N3Cc4ccccc4C3)c(C)c(=O)n2c1` (centres unmarked) [Example 11-348, 2-chloro-5-((1-(2-(isoindolin-2-yl)-3,7-dimethyl-4-oxo-4H-pyrido[1,2-a]pyrimidin-9-yl)ethyl)amino)isonicotinic acid], the pIC50 in assay [1] was under 5.00; in assay [2], 5.26.
For `Cc1cc([C@@H](C)Nc2ccccc2C(=O)O)c2nc(N3CCC4(CCO4)CC3)c(C)c(=O)n2c1` [Example 11-56, (R)-2-((1-(3,7-dimethyl-4-oxo-2-(1-oxa-7-azaspiro[3.5]nonan-7-yl)-4H-pyrido[1,2-a]pyrimidin-9-yl)ethyl)amino)benzoic acid], the values for the pIC50 in assay [1] and in assay [2] were under 5.00 and 6.58, respectively.
In the case of `Cc1cc([C@@H](C)Nc2ccccc2C(=O)O)c2nc(N3CC4(CN(c5ccc(C#N)cc5)C4)C3)c(C)c(=O)n2c1` [Example 11-191, (R)-2-((1-(2-(6-(4-cyanophenyl)-2,6-diazaspiro[3.3]heptan-2-yl)-3,7-dimethyl-4-oxo-4H-pyrido[1,2-a]pyrimidin-9-yl)ethyl)amino)benzoic acid], the negative logarithm of the IC50 (pIC50) is under 5.00 in assay [1] and 5.98 in assay [2].
